Assays:
[1] = biological target: BSA (Bos taurus, UniProt P02769); experiment: Peptide-BSA conjugate ELISA, control wells coated only with blocking solution (BSA); assay type: binding; settings: biotinylated peptide-BSA conjugate, BSA-blocked wells, no mAb
Description: (§1) • mAb 735 and 30H12 • MaxiSorp™ plates (NUNC) for coating the antibody: ELISA plates • microtiter plates (NUNC) for peptide dilution: dilution plates • Biotinylated peptide-BSA conjugates prepared as above described • Extravidin alkaline phosphatase-avidin conjugate (SIGMA E2636) • p-nitrophenyl-phosphatase alkaline substrate (SIGMA 104-105) 2.1.2) Buffers • PBS pH 7.4 • Blocking solution: 0.5% BSA in PBS • TBS • TBST: TBS containing 0.05% Tween 20 • Extravidin alkaline phosphatase-avidin conjugate solution: 1/5000 in TBST • Alkaline phosphatase substrate solution; 1 tablet in 5 ml 50 mM NaHCO3, 1 mM MgCl2 solution, pH 9.6. • mixed competitor solution: 1 mM colominic acid with a peptide-BSA conjugate gradient in TBST 2.1.3) Method
(§2) Maxisorp™ plate wells were coated with 100 μl mAb solution (25 μg/ml) for 2 h at room temperature. The control wells of the ELISA plates were only coated with the blocking solution. In parallel, the peptide-BSA conjugate dilution plates were blocked with 200 μl blocking solution for 2 h. The antibody coated wells and the control wells were blocked with 200 μl blocking solution for 1 h. In parallel the peptide-BSA conjugate dilution plates were washed 6 times with TBST and 120 μl TBST was added to the wells. An appropriate volume of peptide-BSA conjugate solution was added to the first well and the volume adjusted to 140 μl with TBST. The peptide-BSA conjugate in well one was diluted in the ratio 1/7 by taking 20 μl out of the first well and transferring into the second also to achieve the total volume of 140 μl. This was repeated for the remaining wells. The peptide-BSA conjugate dilutions for the control wells were done the same way. The blocked ELISA plates were washed 6 times with TBST and the peptide-BSA conjugate dilutions or 100 μl of the mixed competitor solution was added to the wells. After incubation for 1 h, the wells were washed 10 times with TBST and 100 μl of the alkaline phosphatase substrate solution was added to the wells. The plates were read out after 10 to 60 min using a microplate reader at 405 nm.
(§3) The specificity of peptide p21 (SEQ ID NO: 1) was investigated in a competition ELISA using biotinylated p21-BSA conjugate and a randomized variant of p21 (p22) conjugate as a control. The results presented in Tables X and XI are expressed as percentage of binding by comparison with peptide p21 at the highest concentration (9.45 10^-5 M) which corresponds to 100% binding.

[2] = tested on: mAb 735; experiment: Competitive ELISA of biotinylated peptide-BSA conjugates on anti-PSA mAb; assay type: binding; settings: for Binding of peptide to mAb 735 in competitive ELISA (percentage of binding): biotinylated peptide-BSA conjugate
Description: as §1, with “[…])” for “pH 9.6. • mixed competitor solution: 1 mM colominic acid with a peptide-BSA conjugate gradient in TBST 2.1.3)”
as §2, §3

[3] = peptide-BSA conjugate, in words

Chain of BSA (P02769 25-607): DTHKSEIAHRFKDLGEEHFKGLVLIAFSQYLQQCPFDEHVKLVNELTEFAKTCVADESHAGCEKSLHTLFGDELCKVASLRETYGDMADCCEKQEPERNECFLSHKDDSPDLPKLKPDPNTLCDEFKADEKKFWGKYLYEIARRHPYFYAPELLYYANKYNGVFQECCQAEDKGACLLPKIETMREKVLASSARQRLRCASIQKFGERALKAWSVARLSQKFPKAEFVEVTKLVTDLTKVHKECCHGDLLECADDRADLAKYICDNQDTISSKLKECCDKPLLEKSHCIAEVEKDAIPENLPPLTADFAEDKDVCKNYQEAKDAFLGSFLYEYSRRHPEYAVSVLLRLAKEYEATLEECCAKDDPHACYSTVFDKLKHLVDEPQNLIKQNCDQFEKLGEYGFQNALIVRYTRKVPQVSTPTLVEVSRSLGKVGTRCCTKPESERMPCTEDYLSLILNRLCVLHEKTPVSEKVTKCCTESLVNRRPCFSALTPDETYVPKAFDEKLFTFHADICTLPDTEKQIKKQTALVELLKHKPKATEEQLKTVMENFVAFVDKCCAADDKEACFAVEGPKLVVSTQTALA

Binding of peptide to BSA control wells (percentage of binding) ([1]; peptide 1.62 10^−9 M): 0 ± 0%
Binding of peptide to BSA control wells (percentage of binding) ([1]; peptide 1.67 10^−5 M): 1 ± 1%
Binding of peptide to BSA control wells (percentage of binding) ([1]; peptide 2.86 10^−9 M): 0 ± 0%
Binding of peptide to BSA control wells (percentage of binding) ([1]; peptide 2.94 10^−6 M): 0 ± 0%
Binding of peptide to BSA control wells (percentage of binding) ([1]; peptide 5.04 10^−10 M): 0 ± 0%
Binding of peptide to BSA control wells (percentage of binding) ([1]; peptide 5.20 10^−7 M): 0 ± 0%
Binding of peptide to BSA control wells (percentage of binding) ([1]; peptide 8.89 10^−11 M): 0 ± 0%
Binding of peptide to BSA control wells (percentage of binding) ([1]; peptide 9.27 10^−8 M): 0 ± 0%
Binding of peptide to BSA control wells (percentage of binding) ([1]; peptide 9.45 10^−5 M): 3 ± 1%
Binding of peptide to mAb 735 in competitive ELISA (percentage of binding) ([2]; peptide 1.62 10^−9 M, + chondroitin sulfate C): 2 ± 0%
Binding of peptide to mAb 735 in competitive ELISA (percentage of binding) ([2]; peptide 1.62 10^−9 M, + colominic acid 1 mM): 0 ± 0%
Binding of peptide to mAb 735 in competitive ELISA (percentage of binding) ([2]; peptide 1.62 10^−9 M, no competitor): 0 ± 0%
Binding of peptide to mAb 735 in competitive ELISA (percentage of binding) ([2]; peptide 1.67 10^−5 M, + chondroitin sulfate C): 8 ± 1%
Binding of peptide to mAb 735 in competitive ELISA (percentage of binding) ([2]; peptide 1.67 10^−5 M, + colominic acid 1 mM): 5 ± 0%
Binding of peptide to mAb 735 in competitive ELISA (percentage of binding) ([2]; peptide 1.67 10^−5 M, no competitor): 9 ± 0%
Binding of peptide to mAb 735 in competitive ELISA (percentage of binding) ([2]; peptide 2.86 10^−9 M, + chondroitin sulfate C): 2 ± 0%
Binding of peptide to mAb 735 in competitive ELISA (percentage of binding) ([2]; peptide 2.86 10^−9 M, + colominic acid 1 mM): 0 ± 0%
Binding of peptide to mAb 735 in competitive ELISA (percentage of binding) ([2]; peptide 2.86 10^−9 M, no competitor): 0 ± 0%
Binding of peptide to mAb 735 in competitive ELISA (percentage of binding) ([2]; peptide 2.94 10^−6 M, + chondroitin sulfate C): 3 ± 1%
Binding of peptide to mAb 735 in competitive ELISA (percentage of binding) ([2]; peptide 2.94 10^−6 M, + colominic acid 1 mM): 0 ± 0%
Binding of peptide to mAb 735 in competitive ELISA (percentage of binding) ([2]; peptide 2.94 10^−6 M, no competitor): 1 ± 0%
Binding of peptide to mAb 735 in competitive ELISA (percentage of binding) ([2]; peptide 5.04 10^−10 M, + chondroitin sulfate C): 2 ± 0%
Binding of peptide to mAb 735 in competitive ELISA (percentage of binding) ([2]; peptide 5.04 10^−10 M, + colominic acid 1 mM): 0 ± 0%
Binding of peptide to mAb 735 in competitive ELISA (percentage of binding) ([2]; peptide 5.04 10^−10 M, no competitor): 0 ± 0%
Binding of peptide to mAb 735 in competitive ELISA (percentage of binding) ([2]; peptide 5.20 10^−7 M, + chondroitin sulfate C): 2 ± 0%
Binding of peptide to mAb 735 in competitive ELISA (percentage of binding) ([2]; peptide 5.20 10^−7 M, + colominic acid 1 mM): 0 ± 0%
Binding of peptide to mAb 735 in competitive ELISA (percentage of binding) ([2]; peptide 5.20 10^−7 M, no competitor): 0 ± 0%
Binding of peptide to mAb 735 in competitive ELISA (percentage of binding) ([2]; peptide 8.89 10^−11 M, + chondroitin sulfate C): 2 ± 0%
Binding of peptide to mAb 735 in competitive ELISA (percentage of binding) ([2]; peptide 8.89 10^−11 M, + colominic acid 1 mM): 0 ± 0%
Binding of peptide to mAb 735 in competitive ELISA (percentage of binding) ([2]; peptide 8.89 10^−11 M, no competitor): 0 ± 0%
Binding of peptide to mAb 735 in competitive ELISA (percentage of binding) ([2]; peptide 9.27 10^−8 M, + chondroitin sulfate C): 2 ± 1%
Binding of peptide to mAb 735 in competitive ELISA (percentage of binding) ([2]; peptide 9.27 10^−8 M, + colominic acid 1 mM): 0 ± 0%
Binding of peptide to mAb 735 in competitive ELISA (percentage of binding) ([2]; peptide 9.27 10^−8 M, no competitor): 0 ± 0%
Binding of peptide to mAb 735 in competitive ELISA (percentage of binding) ([2]; peptide 9.45 10^−5 M, + chondroitin sulfate C): 29 ± 0%
Binding of peptide to mAb 735 in competitive ELISA (percentage of binding) ([2]; peptide 9.45 10^−5 M, + colominic acid 1 mM): 27 ± 0%
Binding of peptide to mAb 735 in competitive ELISA (percentage of binding) ([2]; peptide 9.45 10^−5 M, no competitor): 32 ± 1%
Binding of peptide to mAb 735 [2, 3]: no binding
Effect of colominic acid or chondroitin sulfate C on binding to mAb 735 [2, 3]: no differences were observed
Sequence: PDHIFVFSPDLP [p22, reference compound]

From patent publication US7417025B2, “Use of poly-α2,8-sialic acid mimetic peptides to modulate NCAM functions” (Centre National de la Recherche Scientifique, priority 2002, dated 2008)
